Results from paper PMC4738285 (Scientific Reports, 2016).

Legend:
[1] = tested on: HeLa cells; assay type: cell-based, human
[2] = target: T1, Hsp70 (Homo sapiens, UniProt P0DMV8); assay type: binding; design: made in house; conditions: HeLa cell lysate
[3] = tested on: HeLa cells; assay type: cell-based, human; remark: listed apart in the source
[4] = tested on: HeLa cells; conditions: human, 24 h
[5] = tested on: C. perfringens iota toxin on Vero cells; assay type: cell-based, African green monkey
[6] = target: T2, Hsc70 (Homo sapiens, UniProt P11142); assay type: binding; design: endogenous in cells; host or cells: HeLa cell lysate; conditions: HeLa cell lysate
[7] = tested on: HEK-293; assay: cells; assay type: cell-based; conditions: Homo sapiens, HEK293, 48 h, read-out: EC50 value
[8] = tested on: HeLa cells; assay type: cell-based, human; remark: listed apart in the source
[9] = target: T1, Hsp70; assay type: biochemical; design: made in house; conditions: concentrations up to 200 μM; 0.5 μM Hsp70, 1 mM ATP
[10] = target: T1, Hsp70; assay: biochemical
[11] = target: T2, Hsc70; assay: biochemical; assay type: biochemical; design: made in house
[12] = tested on: SH-SY5Y; assay: cells; assay type: cell-based; conditions: Homo sapiens, 48 h, read-out: EC50 value
[13] = tested on: HeLa cells; assay type: cell-based, human; remark: listed apart in the source
[14] = target: T1, Hsp70; assay: biochemical; design: made in house
[15] = tested on: HT-29; assay: cells; assay type: cell-based; conditions: Homo sapiens, HT-29, 48 h, read-out: EC50 value
[16] = tested on: HeLa cells; assay: cells; assay type: cell-based; conditions: Homo sapiens; for EC50: read-out: EC50 cell survival, clonogenic assay; for IC50: read-out: IC50 survival, clonogenic assay
[17] = tested on: HeLa; assay: cells; assay type: cell-based; conditions: Homo sapiens, 48 h, read-out: EC50 value
[18] = target: T1, Hsp70; assay type: binding; design: made in house; conditions: 500 nM Hsp70, 50 μM 1; five of six regions
[19] = target: T1, Hsp70; conditions: ITC, 20 °C
[20] = tested on: C. perfringens iota toxin on Vero cells; assay type: cell-based, African green monkey; remark: listed apart in the source
[21] = target: Hsp70; conditions: read-out: dissociation constant; cited from earlier work
[22] = tested on: iota toxin receptor binding on Vero cells; assay type: cell-based, African green monkey; conditions: 4 °C, 30 min
[23] = tested on: Ia of C. perfringens iota toxin; assay type: biochemical, Clostridium perfringens

T2 sequence (P11142 whole entry): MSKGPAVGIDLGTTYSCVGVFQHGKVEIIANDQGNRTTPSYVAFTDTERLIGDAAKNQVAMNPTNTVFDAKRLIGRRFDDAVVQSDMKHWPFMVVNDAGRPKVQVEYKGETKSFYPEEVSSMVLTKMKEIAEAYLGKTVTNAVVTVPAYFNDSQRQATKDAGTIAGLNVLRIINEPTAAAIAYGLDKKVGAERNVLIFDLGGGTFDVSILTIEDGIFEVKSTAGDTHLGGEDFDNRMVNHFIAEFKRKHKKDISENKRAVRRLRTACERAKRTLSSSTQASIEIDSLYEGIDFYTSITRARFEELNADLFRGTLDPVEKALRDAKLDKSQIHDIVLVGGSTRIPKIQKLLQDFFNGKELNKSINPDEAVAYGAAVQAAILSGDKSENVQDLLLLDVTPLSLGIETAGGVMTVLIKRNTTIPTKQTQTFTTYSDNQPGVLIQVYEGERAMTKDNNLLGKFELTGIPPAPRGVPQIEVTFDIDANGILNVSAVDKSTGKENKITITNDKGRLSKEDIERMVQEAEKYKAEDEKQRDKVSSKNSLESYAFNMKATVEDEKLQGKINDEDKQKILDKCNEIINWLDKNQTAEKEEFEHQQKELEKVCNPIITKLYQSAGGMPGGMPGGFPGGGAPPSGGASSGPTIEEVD
T1 sequence (P0DMV8 whole entry): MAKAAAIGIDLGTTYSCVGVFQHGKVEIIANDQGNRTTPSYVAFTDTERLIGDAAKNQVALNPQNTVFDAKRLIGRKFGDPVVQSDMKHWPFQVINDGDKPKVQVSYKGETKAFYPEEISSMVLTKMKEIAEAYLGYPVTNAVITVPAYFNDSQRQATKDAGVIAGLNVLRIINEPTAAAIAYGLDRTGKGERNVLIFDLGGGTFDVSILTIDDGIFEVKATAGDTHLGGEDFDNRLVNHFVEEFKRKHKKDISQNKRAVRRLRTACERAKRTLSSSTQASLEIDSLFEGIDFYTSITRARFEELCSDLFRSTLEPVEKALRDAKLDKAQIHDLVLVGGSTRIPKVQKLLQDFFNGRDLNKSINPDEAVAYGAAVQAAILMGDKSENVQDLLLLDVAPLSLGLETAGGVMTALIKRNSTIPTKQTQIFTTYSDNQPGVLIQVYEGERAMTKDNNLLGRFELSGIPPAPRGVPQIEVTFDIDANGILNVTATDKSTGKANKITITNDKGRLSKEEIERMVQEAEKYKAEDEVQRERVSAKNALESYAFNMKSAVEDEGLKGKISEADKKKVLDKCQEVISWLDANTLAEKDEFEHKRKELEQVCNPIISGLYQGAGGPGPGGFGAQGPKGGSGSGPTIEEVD

Nc1ccc2c[n+]3ccccc3cc2c1 [Compound 1]
accumulation in G2/M phase [1]: did not accumulate in the G2/M phase
cell cycle phase distribution [1]: did not result in changes
cells remaining in G2/M [1]: > 20%
Hsp70 bound to matrix-coupled 1 [2]: detection of Hsp70
cytoplasmic vacuolization after heat stress [3]: strong cytoplasmic vacuolization
localization of Hsp70 at 37 °C [3]: did not alter
localization of Hsp70 at 42 °C [3]: dramatic Hsp70 re-distribution into the whole nucleus
subcellular distribution of Hsp70 in thymidine- and nocodazole-treated cells [3]: did not change
compound remaining intact in HeLa cell lysate [4]: 90%
toxin-induced cell-rounding [5]: significantly delayed
Hsc70 bound to matrix-coupled 1 [6]: no detectable amount of Hsc70
EC50 [7]: 29.1 ± 1.1 µM
apoptosis induction by staurosporine [8]: enhanced apoptosis induction
cleavage of procaspases 3 and 7 in combination with staurosporine [8]: synergistic effect
procaspase cleavage, compound alone [8]: did not result in significant procaspase cleavage
ATPase activity of Hsp70 [9]: remained unaffected
Kd [10]: 5.6 ± 3.1 µM
IC50 [11]: 363 ± 20 µM
Inhibition of Hsc70 less efficient compared to Hsp70 ([11]; luciferase refolding): 8 fold
EC50 [12]: 58.1 ± 4.6 µM
amount of Hsp70 in HeLa cells [13]: did not influence
IC50 [14]: 45 ± 4 µM
EC50 [15]: 71.6 ± 34 µM
EC50 [16]: 11.2 µM
IC50 [16]: 11.2 µM
EC50 [17]: 19.5 ± 2.5 µM
Hsp70 binding to p53-derived peptide regions in the presence of 1 [18]: abolished
stoichiometry N [19]: 1.1
TΔSITC ([19]; pH 7.8): 8.3 kcal/mol
binding enthalpy ΔHITC ([19]; pH 7.8): 1.3 ± 0.3 kcal/mol
ΔGITC ([19]; pH 7.8): -7.0 kcal/mol

c1cc[n+]2cc3ccc(N4CCCC4)cc3cc2c1 [Compound 2]
IC50 [11]: 34 ± 3 µM
IC50 [14]: 127 ± 7 µM

CSc1ccc2c[n+]3ccccc3cc2c1 [Compound 3]
localization of Hsp70 at 37 °C [3]: did not alter
localization of Hsp70 at 42 °C [3]: did not alter
compound remaining intact in HeLa cell lysate [4]: 90%
intoxication of Vero cells with iota toxin [5]: no comparable inhibitory effect
EC50 [7]: 22.6 ± 1.3 µM
cleavage of procaspases 3 and 7 in combination with staurosporine [8]: did not result in significant procaspase cleavage
procaspase cleavage, compound alone [8]: did not result in significant procaspase cleavage
IC50 [11]: 931 ± 47 µM
EC50 [12]: 70 ± 10.5 µM
IC50 [14]: 1050 ± 53 µM
EC50 [15]: 115 ± 52.4 µM
EC50 [16]: 13.1 µM
IC50 [16]: 13.1 µM
EC50 [17]: 35.8 ± 12.4 µM

F[B-](F)(F)F.[Na+] [NaBF4]
apoptosis of HeLa cells, salt with staurosporine [8]: do not affect

[Br-].[Na+] [NaBr]
apoptosis of HeLa cells, salt with staurosporine [8]: do not affect

N#Cc1ccc(COC[C@H]2O[C@@H](n3c(NCc4ccc(Cl)c(Cl)c4)nc4c(N)ncnc43)[C@H](O)[C@@H]2O)cc1 [VER-155008]
round cells after acidic pulse (translocation of Ia) [20]: significantly less round cells
intoxication of the cells with iota toxin [5]: inhibitory effect
Kd [21]: 0.3 µM
binding of iota toxin to the cells [22]: had no effect
enzyme activity of Ia [23]: had no effect

C[C@@H]1C[C@H]2O[C@@H]2/C=C\C=C\C(=O)Cc2c(Cl)c(O)cc(O)c2C(=O)O1 [radicicol]
round cells after acidic pulse (translocation of Ia) [20]: significantly less round cells
binding of iota toxin to the cells [22]: had no effect
enzyme activity of Ia [23]: had no effect
